Values quoted from earlier work, collected in patent US9603775B2, “Delamination resistant pharmaceutical glass containers containing active pharmaceutical ingredients” (Corning Incorporated, priority 2013, dated 2017).

Experiments:
[1] = system: IL-12 and IL-23 mediated signaling and cytokine cascades; settings: in vitro models

Row | Compound | effect on antigen presentation (26S proteasome) | effect on IL-12 and IL-23 mediated signaling and cytokine cascades [1]
1 | CC(C)C[C@H](NC(=O)[C@H](Cc1ccccc1)NC(=O)c1cnccn1)B(O)O [bortezomib, [(1R)-3-methyl-1-[[(2S)-1-oxo-3-phenyl-2-[(pyrazinylcarbonyl)amino]propyl]amino]butyl]boronic acid] | inhibited in a dose dependent manner | –
2 | ustekinumab: human IgG1κ monoclonal antibody that binds the p40 subunit of IL-12 and IL-23 cytokines | – | disrupt IL-12 and IL-23 mediated signaling and cytokine cascades
